From US20240025884A1 (Dong-A ST Co., Ltd., priority 2022, published 2024) come the findings set out here.

Bounds are passed on as bounds.

GCN2, sequence (Q9P2K8 whole entry): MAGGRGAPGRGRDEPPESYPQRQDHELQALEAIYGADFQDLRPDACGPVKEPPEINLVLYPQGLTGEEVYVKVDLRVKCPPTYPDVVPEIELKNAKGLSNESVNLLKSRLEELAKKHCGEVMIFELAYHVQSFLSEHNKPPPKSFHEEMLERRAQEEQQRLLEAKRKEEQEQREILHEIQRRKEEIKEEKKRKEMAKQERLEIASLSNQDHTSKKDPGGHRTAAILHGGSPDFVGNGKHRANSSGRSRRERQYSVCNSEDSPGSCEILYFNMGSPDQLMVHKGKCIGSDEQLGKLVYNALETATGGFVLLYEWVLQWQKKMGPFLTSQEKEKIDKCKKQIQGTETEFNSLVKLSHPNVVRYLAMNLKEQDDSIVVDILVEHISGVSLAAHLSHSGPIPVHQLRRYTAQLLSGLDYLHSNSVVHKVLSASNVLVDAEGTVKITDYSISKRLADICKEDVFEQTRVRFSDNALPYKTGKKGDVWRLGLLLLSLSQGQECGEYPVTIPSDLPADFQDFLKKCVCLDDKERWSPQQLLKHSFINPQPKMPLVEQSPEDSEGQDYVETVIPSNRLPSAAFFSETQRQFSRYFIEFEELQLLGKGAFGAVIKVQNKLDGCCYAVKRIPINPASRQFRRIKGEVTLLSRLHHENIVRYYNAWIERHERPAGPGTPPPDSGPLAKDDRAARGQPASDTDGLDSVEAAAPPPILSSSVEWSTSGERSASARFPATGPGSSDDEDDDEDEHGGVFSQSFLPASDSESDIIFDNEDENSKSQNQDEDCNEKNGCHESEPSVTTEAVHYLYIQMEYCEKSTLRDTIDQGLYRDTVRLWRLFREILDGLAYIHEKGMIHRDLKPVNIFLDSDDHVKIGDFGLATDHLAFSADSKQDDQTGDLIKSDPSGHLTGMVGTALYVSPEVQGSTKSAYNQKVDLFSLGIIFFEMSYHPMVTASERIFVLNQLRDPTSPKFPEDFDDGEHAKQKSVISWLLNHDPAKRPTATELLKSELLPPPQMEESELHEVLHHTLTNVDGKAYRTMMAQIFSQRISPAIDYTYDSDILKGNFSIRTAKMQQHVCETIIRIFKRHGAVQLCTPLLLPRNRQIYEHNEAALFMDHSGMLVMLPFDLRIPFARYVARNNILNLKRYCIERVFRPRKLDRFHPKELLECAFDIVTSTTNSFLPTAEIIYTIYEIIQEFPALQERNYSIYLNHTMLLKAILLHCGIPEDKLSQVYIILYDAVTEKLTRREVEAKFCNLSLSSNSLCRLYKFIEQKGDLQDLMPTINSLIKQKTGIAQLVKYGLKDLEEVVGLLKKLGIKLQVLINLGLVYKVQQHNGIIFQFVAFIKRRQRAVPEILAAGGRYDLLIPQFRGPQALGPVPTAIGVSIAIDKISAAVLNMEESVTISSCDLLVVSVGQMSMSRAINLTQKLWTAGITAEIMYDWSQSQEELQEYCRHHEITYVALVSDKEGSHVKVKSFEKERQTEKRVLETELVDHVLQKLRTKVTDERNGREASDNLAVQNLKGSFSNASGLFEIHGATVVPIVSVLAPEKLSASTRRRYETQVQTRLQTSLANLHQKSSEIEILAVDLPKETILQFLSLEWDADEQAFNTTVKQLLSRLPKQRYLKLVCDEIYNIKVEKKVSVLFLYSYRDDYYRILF

In the test the target is GCN2 (Homo sapiens (Human), UniProt Q9P2K8). Description: GCN2 Biochemical Assay (TR-FRET, GFP-eIF2S1 substrate phosphorylation). Particulars: read-out: IC50 (GCN2 Inhibitory Activity). A digest of the protocol:
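In-house GCN2 (1.6 nM 2× stock) phosphorylates GFP-eIF2S1 (50 nM 2× stock) with ATP (0.2 mM 2× stock) and tRNA, pH 7.5, 70 min at room temperature; 10-point 3.16-fold compound series. TR-FRET detection with Tb-anti-phospho antibody, 2–3 h, Ex 340/Em 490/520 nm; artifact plate spiked with phospho-substrate.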
For orientation: TR-FRET usually uses a lanthanide donor and a delayed reading to cut background.
For orientation: IC50 means the concentration needed to halve the response being measured. With `Cc1cnc(Nc2cc(C)n(C)n2)nc1-c1c[nH]c2c(N3Cc4cccc(N5CCN(C)CC5)c4C3=O)cccc12` [Example 348, 2-(3-(2-((1,5-dimethyl-1H-pyrazol-3-yl)amino)-5-methylpyrimidin-4-yl)-1H-indol-7-yl)-7-(4-methylpiperazin-1-yl)isoindolin-1-one], the IC50 is 10 to 100 nM.

As for `Cc1cnc(Nc2cc(C)n(C)n2)nc1-c1c[nH]c2c(NC(=O)CN3CC[C@H](Oc4cc(N5CCOCC5)ncn4)C3)cccc12` [Example 164, (S)-N-(3-(2-((1,5-dimethyl-1H-pyrazol-3-yl)amino)-5-methylpyrimidin-4-yl)-1H-indol-7-yl)-2-(3-((6-morpholinopyrimidin-4-yl)oxy)pyrrolidin-1-yl)acetamide], the half-inhibitory concentration (IC50) is less than 10 nM.

As to `Cc1cnc(Nc2cc(C)n(C)n2)nc1-c1c[nH]c2c(NC(=O)CN3C[C@H](F)[C@H](Oc4ccnc(NC5CC5)n4)C3)cccc12` [Example 52, 2-((3R,4S)-3-((2-(cyclopropylamino)pyrimidin-4-yl)oxy)-4-fluoropyrrolidin-1-yl)-N-(3-(2-((1,5-dimethyl-1H-pyrazol-3-yl)amino)-5-methylpyrimidin-4-yl)-1H-indol-7-yl)acetamide], the concentration for half-maximal inhibition (IC50) was less than 10 nM.

On to `Cc1cnc(Nc2cc(C)n(C)n2)nc1-c1c[nH]c2c(N3Cc4c(NC(=O)C5(C)CCCNC5)cccc4C3=O)cccc12` (stereo not shown) [Example 332, N-(2-(3-(2-((1,5-dimethyl-1H-pyrazol-3-yl)amino)-5-methylpyrimidin-4-yl)-1H-indol-7-yl)-1-oxoisoindolin-4-yl)-3-methylpiperidine-3-carboxamide], for which the IC50 is less than 10 nM.

On to `Cc1cnc(Nc2cc(C)n(C)n2)nc1-c1c[nH]c2c(N3Cc4c(cccc4-c4cccnc4F)C3=O)cccc12` [Example 431, 2-(3-(2-((1,5-dimethyl-1H-pyrazol-3-yl)amino)-5-methylpyrimidin-4-yl)-1H-indol-7-yl)-4-(2-fluoropyridin-3-yl)isoindolin-1-one], for which the IC50 was less than 10 nM.

As to `Cc1cnc(Nc2cc(C)n(C)n2)nc1-c1c[nH]c2c(NC(=O)CN3CC[C@H](Oc4ncc(F)c(N(C)Cc5ccccc5)n4)C3)cccc12` [Example 185, (S)-2-(3-((4-(benzyl(methyl)amino)-5-fluoropyrimidin-2-yl)oxy)pyrrolidin-1-yl)-N-(3-(2-((1,5-dimethyl-1H-pyrazol-3-yl)amino)-5-methylpyrimidin-4-yl)-1H-indol-7-yl)acetamide], the IC50 was less than 10 nM.

Take `Cc1cnc(Nc2cc(C)n(C)n2)nc1-c1c[nH]c2c(NC(=O)CN3CC[C@H](Oc4ccnn4C)C3)cccc12` [Example 104, (S)-N-(3-(2-((1,5-dimethyl-1H-pyrazol-3-yl)amino)-5-methylpyrimidin-4-yl)-1H-indol-7-yl)-2-(3-((1-methyl-1H-pyrazol-5-yl)oxy)pyrrolidin-1-yl)acetamide]: the concentration for half-maximal inhibition (IC50) was less than 10 nM.

For `Cc1cnc(Nc2cc(C)n(C)n2)nc1-c1c[nH]c2c(NC(=O)CN3CC[C@H](Oc4ccon4)C3)cccc12` [Example 118, (S)-N-(3-(2-((1,5-dimethyl-1H-pyrazol-3-yl)amino)-5-methylpyrimidin-4-yl)-1H-indol-7-yl)-2-(3-(isoxazol-3-yloxy)pyrrolidin-1-yl)acetamide], the IC50 was less than 10 nM.

Take `Cc1cnc(Nc2cc(C)n(C)n2)nc1-c1c[nH]c2c(N3Cc4c(NC(=O)C5CCN(C)CC5)cccc4C3=O)cccc12` [Example 306, N-(2-(3-(2-((1,5-dimethyl-1H-pyrazol-3-yl)amino)-5-methylpyrimidin-4-yl)-1H-indol-7-yl)-1-oxoisoindolin-4-yl)-1-methylpiperidine-4-carboxamide]: the IC50 is less than 10 nM.

In the case of `Cc1cnc(Nc2cc(C)n(C)n2)nc1-c1c[nH]c2c(N3Cc4c(NS(=O)(=O)c5ccccc5)cccc4C3=O)cccc12` [Example 341, N-(2-(3-(2-((1,5-dimethyl-1H-pyrazol-3-yl)amino)-5-methylpyrimidin-4-yl)-1H-indol-7-yl)-1-oxoisoindolin-4-yl)benzenesulfonamide], the 50% inhibitory concentration (IC50) is less than 10 nM.

`Cc1cnc(Nc2cc(C)n(C)n2)nc1-c1c[nH]c2c(NC(=O)CN3CC[C@H](Oc4cc(NC5CCCCC5)ncn4)C3)cccc12` [Example 152, (S)-2-(3-((6-(cyclohexylamino)pyrimidin-4-yl)oxy)pyrrolidin-1-yl)-N-(3-(2-((1,5-dimethyl-1H-pyrazol-3-yl)amino)-5-methylpyrimidin-4-yl)-1H-indol-7-yl)acetamide]: the IC50 is 10 to 100 nM.

Take `Cc1cnc(Nc2cc(C)n(C)n2)nc1-c1c[nH]c2c(N3Cc4c(cccc4-c4ccc(N5CCN(C)CC5)cc4)C3=O)cccc12` [Example 426, 2-(3-(2-((1,5-dimethyl-1H-pyrazol-3-yl)amino)-5-methylpyrimidin-4-yl)-1H-indol-7-yl)-4-(4-(4-methylpiperazin-1-yl)phenyl)isoindolin-1-one]: the 50% inhibitory concentration (IC50) is less than 10 nM.

In the case of `Cc1cnc(Nc2cc(C)n(C)n2)nc1-c1c[nH]c2c(N3Cc4c(cccc4C4=CCCCC4)C3=O)cccc12` [Example 391, 4-(cyclohex-1-en-1-yl)-2-(3-(2-((1,5-dimethyl-1H-pyrazol-3-yl)amino)-5-methylpyrimidin-4-yl)-1H-indol-7-yl)isoindolin-t-one], the half-maximal inhibitory concentration (IC50) is 10 to 100 nM.

With `Cc1cnc(Nc2cc(C)n(C)n2)nc1-c1c[nH]c2c(NC(=O)C(C)(C)N3CCCC3)cccc12` [Example 24, N-(3-(2-((1,5-dimethyl-1H-pyrazol-3-yl)amino)-5-methylpyrimidin-4-yl)-1H-indol-7-yl)-2-methyl-2-(pyrrolidin-1-yl)propenamide], the IC50 was in the range of 100 to 1000 nM.

On to `Cc1cnc(Nc2cc(C)n(C)n2)nc1-c1c[nH]c2c(N3Cc4c(Br)ccnc4C3=O)cccc12` [Example 286, 4-bromo-6-(3-(2-((1,5-dimethyl-1H-pyrazol-3-yl)amino)-5-methylpyrimidin-4-yl)-1H-indol-7-yl)-5,6-dihydro-7H-pyrrolo[3,4-b]pyridin-7-one], for which the IC50 was less than 10 nM.

`Cc1cnc(Nc2cc(C)n(C)n2)nc1-c1c[nH]c2c(NC(=O)CN3CC[C@H](Oc4cc(N5CCN(C)CC5)ncn4)C3)cccc12` [Example 165, (S)-N-(3-(2-((1,5-dimethyl-1H-pyrazol-3-yl)amino)-5-methylpyrimidin-4-yl)-1H-indol-7-yl)-2-(3-((6-(4-methylpiperazin-1-yl)pyrimidin-4-yl)oxy)pyrrolidin-1-yl)acetamide]: the IC50 is less than 10 nM.

`Cc1cnc(Nc2cc(C)n(C)n2)nc1-c1c[nH]c2c(N3C(=O)c4ccc([N+](=O)[O-])cc4C3=O)cccc12` [Example 264, 2-(3-(2-((1,5-dimethyl-1H-pyrazol-3-yl)amino)-5-methylpyrimidin-4-yl)-1H-indol-7-yl)-5-nitroisoindoline-1,3-dione]: the IC50 was less than 10 nM.

Take `Cc1cnc(Nc2cc(C)n(C)n2)nc1-c1c[nH]c2c(NC(=O)CN3CC[C@H](Oc4cnc(-c5cccnc5)nc4)C3)cccc12` [Example 258, (S)-N-(3-(2-((1,5-dimethyl-1H-pyrazol-3-yl)amino)-5-methylpyrimidin-4-yl)-1H-indol-7-yl)-2-(3-((2-(pyridin-3-yl)pyrimidin-5-yl)oxy)pyrrolidin-1-yl)acetamide]: the half-inhibitory concentration (IC50) fell in the range of 10 to 100 nM.

In the case of `Cc1cnc(Nc2cc(C)n(C)n2)nc1-c1c[nH]c2c(N3Cc4cccc(N)c4C3=O)cccc12` [Example 276, 7-amino-2-(3-(2-((1,5-dimethyl-1H-pyrazol-3-yl)amino)-5-methylpyrimidin-4-yl)-1H-indol-7-yl)isoindolin-1-one], the IC50 lay in the range of 10 to 100 nM.

On to `Cc1cnc(Nc2cc(C)n(C)n2)nc1-c1c[nH]c2c(N3Cc4c(ccnc4Br)C3=O)cccc12` [Example 290, 4-bromo-2-(3-(2-((1,5-dimethyl-1H-pyrazol-3-yl)amino)-5-methylpyrimidin-4-yl)-1H-indol-7-yl)-2,3-dihydro-1H-pyrrolo[3,4-c]pyridin-1-one], for which the 50% inhibitory concentration (IC50) was less than 10 nM.

Regarding `CNC(=O)/C=C/c1cccc2c1CN(c1cccc3c(-c4nc(Nc5cc(C)n(C)n5)ncc4C)c[nH]c13)C2=O` [Example 363, (E)-3-(2-(3-(2-((1,5-dimethyl-1H-pyrazol-3-yl)amino)-5-methylpyrimidin-4-yl)-1H-indol-7-yl)-1-oxoisoindolin-4-yl)-N-methylacrylamide], the half-maximal inhibitory concentration (IC50) was less than 10 nM.

On to `Cc1cnc(Nc2cc(C)n(C)n2)nc1-c1c[nH]c2c(N3Cc4c(cccc4-c4ccnc(C(N)=O)c4)C3=O)cccc12` [Example 473, 4-(2-(3-(2-((1,5-dimethyl-1H-pyrazol-3-yl)amino)-5-methylpyrimidin-4-yl)-1H-indol-7-yl)-1-oxoisoindolin-4-yl)picolinamide], for which the half-inhibitory concentration (IC50) was less than 10 nM.

Take `Cc1cnc(Nc2cc(C)n(C)n2)nc1-c1c[nH]c2c(NC(=O)CN3CCC(Oc4ncccn4)CC3)cccc12` [Example 41, N-(3-(2-((1,5-dimethyl-1H-pyrazol-3-yl)amino)-5-methylpyrimidin-4-yl)-1H-indol-7-yl)-2-(4-(pyrimidin-2-yloxy)piperidin-1-yl)acetamide]: the IC50 is 10 to 100 nM.

As for `Cc1cnc(Nc2cc(C)n(C)n2)nc1-c1c[nH]c2c(NC(=O)CN3CC[C@@H](C(=O)N4CCN(C)CC4)C3)cccc12` [Example 65, (R)-N-(3-(2-((1,5-dimethyl-1H-pyrazol-3-yl)amino)-5-methylpyrimidin-4-yl)-1H-indol-7-yl)-2-(3-(4-methylpiperazine-1-carbonyl)pyrrolidin-1-yl)acetamide], the half-maximal inhibitory concentration (IC50) was 100 to 1000 nM.

As to `CCCNc1cc(O[C@H]2CCN(CC(=O)Nc3cccc4c(-c5nc(Nc6cc(C)n(C)n6)ncc5C)c[nH]c34)C2)ncn1` [Example 143, (S)-N-(3-(2-((1,5-dimethyl-1H-pyrazol-3-yl)amino)-5-methylpyrimidin-4-yl)-1H-indol-7-yl)-2-(3-((6-(propylamino)pyrimidin-4-yl)oxy)pyrrolidin-1-yl)acetamide], the IC50 was less than 10 nM.
